The values below come from ChEMBL document CHEMBL1131439, “Prediction of binding affinities for TIBO inhibitors of HIV-1 reverse transcriptase using Monte Carlo simulations in a linear response method” (J Med Chem, 1998).

The target in the assay is Human immunodeficiency virus type 1 reverse transcriptase (Human immunodeficiency virus 1, UniProt Q72547). In words: Inhibition of HIV-1 reverse transcriptase.
With `CC(C)=CCN1Cc2cccc3nc(O)n(c23)C[C@@H]1C`, the IC50 (as a rule, the concentration needed to halve the response being measured) amounted to 3160 nM.

Take `CC(C)=CCN1Cc2c(F)ccc3[nH]c(=S)n(c23)C[C@@H]1C`: the concentration for half-maximal inhibition (IC50) was found to be 5.8 nM.

As to `CC(C)=CCN1Cc2c(Cl)ccc3[nH]c(=S)n(c23)C[C@@H]1C` [TIVIRAPINE], the IC50 is 4.3 nM.

For the molecule `C#Cc1ccc2[nH]c(=O)n3c2c1CN(CC=C(C)C)[C@@H](C)C3`, the IC50 amounted to 437 nM.

`C#Cc1ccc2[nH]c(=S)n3c2c1CN(CC=C(C)C)[C@@H](C)C3` displayed a 50% inhibitory concentration (IC50) of 29.5 nM.

`CC(C)=CCN1Cc2cc(Cl)cc3[nH]c(=S)n(c23)C[C@@H]1C` returned an IC50 of 34 nM.

`CC(C)=CCN1Cc2c(C)ccc3[nH]c(=S)n(c23)C[C@@H]1C` had an IC50 of 13.6 nM.

`CC(C)=CCN1Cc2cccc3[nH]c(=S)n(c23)C[C@@H]1C` displayed an IC50 of 44 nM.

Turning to `CC(C)=CCN1Cc2c(C)ccc3[nH]c(=O)n(c23)C[C@@H]1C`, the IC50 amounted to 989 nM.

`COc1ccc2[nH]c(=S)n3c2c1CN(CC=C(C)C)[C@@H](C)C3`: the IC50 was 33.9 nM.

As to `CC(C)=CCN1Cc2c(C#N)ccc3[nH]c(=S)n(c23)C[C@@H]1C`, it took 56.3 nM to reach half-maximal inhibition (IC50).

With `CC(C)=CCN1Cc2c(C#N)ccc3[nH]c(=O)n(c23)C[C@@H]1C`, the IC50 is 1140 nM.
